Data published in patent US6492405B2, “Nitric oxide donors and pharmaceutical compositions containing them” (Yissum Research Development Company of the Hebrew …, priority 1999, dated 2002).

System: vascular cGMP
Assay: vasorelaxant activity measured as increase in vascular cGMP in rat aorta after i.v. push, before and after 18 hr continuous i.v. infusion
Assay type: in vivo, male Sprague-Dawley rats
Conditions: for cGMP Post-infusion / cGMP Pre-infusion: rat aorta, i.v. push, nitroglycerin equimolar doses; for cGMP Post-infusion: after 18 hr continuous i.v. infusion of the same compound; for cGMP Pre-infusion: before 18 hr continuous i.v. infusion
Experimental: Representative for the new compounds, the vasorelaxant activities (measured as the ability of the tested drug to induce an increase in vascular cGMP) of the example compounds 1 to 6 were determined and compared to activity of nitroglycerin under the same experimental conditions following single and sustained exposure of rats to the compound.
For this purpose the compound to be tested was administered, in each case, to 8 male Sprague-Dawley rats (300-400 g) before and after an 18 hr continuous intravenous infusion of the compound. […] After drug administration (i.v. push), the rat was sacrificed, the aorta immediately removed and processed for cGMP measurement as has been described in detail by us. All of the tested new compounds were utilized in nitroglycerin equimolar doses, either before of after the “tolerance” induction period.
The following table summarizes the results obtained following administration of either nitroglycerin or the tested compounds before and after an 18 hr continuous exposure to the same compound: […]

Row | Compound | cGMP Post-infusion [pmol/g tissue] | cGMP Pre-infusion [pmol/g tissue] | tolerance to the cGMP-inducing activity (after 18 hr continuous in vivo administration)
1 | O=[N+]([O-])OCC1(CO[N+](=O)[O-])CCSSC1 [Compound 3, 1,1-Diemethanol-dinitrate-3,4-dithiane] | 174 ± 16 | 171 ± 14 | 
2 | 1,1′-Bisthiomethyl-3,4-dihydroxy-cyclohexane-dinitrate ester [Compound 4] | 169 ± 13 | 149 ± 11 | 
3 | O=[N+]([O-])OCCCCCC1CCSS1 (centres unmarked) [Compound 5, Thioctyl Alcohol Nitrate Ester] | 113 ± 11 | 123 ± 13 | 
4 | 1,2-Dihydroxy-dinitrate-6,8-dithiane [Compound 6] | 179 ± 12 | 193 ± 17 | 
5 | O=[N+]([O-])OCC(CO[N+](=O)[O-])O[N+](=O)[O-] [Nitroglycerin, nitroglycerin, reference compound] | 68 ± 9 | 153 ± 13 | developed early
